Results reported in PMC2991631 (Biochemical pharmacology, 2010).
Where two headings read alike, the source gives them in different places.

Key:
hCE1 (CES1) = settings: hCE1 relative to hiCE; cited from earlier work
[1] = tested on: carboxylesterases (CE) in human liver microsomal extracts; assay: CE activity; assay type: biochemical; settings: 10μM benzil
[2] = tested on: carboxylesterases (hiCE, hCE1) in human liver microsomal extracts; assay type: biochemical; settings: 10μM benzil
[3] = liver microsomal extracts, typical

In the case of CCc1c2c(nc3ccc(OC(=O)N4CCC(N5CCCCC5)CC4)cc13)-c1cc3c(c(=O)n1C2)COC(=O)[C@]3(O)CC [CPT-11, 7-ethyl-10-[4-(1-piperidino)-1-piperidino]carbonyloxycamptothecin], the “Km for CPT-11, hCE1 higher than hiCE” value (hCE1 (CES1)) is given as ~ 25 fold.
In the case of O=C(C(=O)c1ccccc1)c1ccccc1 [benzil], the “CE activity + benzil” value ([1]; liver microsomal extract HG03) is reported as 640 ± 97 nmol/mg/min, the “Loss in CE activity + benzil” value ([1]; liver microsomal extract HG03) is reported as 5935 nmol/mg/min and the “Loss in CE activity + benzil [%]” value ([1]; liver microsomal extract HG03) is reported as 90.3%. The “CE activity + benzil” value ([1]; liver microsomal extract HG74) was 854 ± 97 nmol/mg/min, the “Loss in CE activity + benzil” value ([1]; liver microsomal extract HG74) was 6353 nmol/mg/min and the “Loss in CE activity + benzil [%]” value ([1]; liver microsomal extract HG74) was 88.2%. The “CE activity + benzil” value ([1]; liver microsomal extract HG93) was 521 ± 86 nmol/mg/min, the “Loss in CE activity + benzil” value ([1]; liver microsomal extract HG93) was 4207 nmol/mg/min and the “Loss in CE activity + benzil [%]” value ([1]; liver microsomal extract HG93) was 89.0%. The “CE activity + benzil” value ([1]; liver microsomal extract HG95) was 469 ± 45 nmol/mg/min, the “Loss in CE activity + benzil” value ([1]; liver microsomal extract HG95) was 4656 nmol/mg/min and the “Loss in CE activity + benzil [%]” value ([1]; liver microsomal extract HG95) was 90.9%. For the same compound, the “CE activity + benzil” value ([1]; liver microsomal extract HG103) was 448 ± 25 nmol/mg/min, the “Loss in CE activity + benzil” value ([1]; liver microsomal extract HG103) was 3258 nmol/mg/min and the “Loss in CE activity + benzil [%]” value ([1]; liver microsomal extract HG103) was 87.9%. The “CE activity + benzil” value ([1]; liver microsomal extract HH13) was 389 ± 41 nmol/mg/min, the “Loss in CE activity + benzil” value ([1]; liver microsomal extract HH13) was 504 nmol/mg/min and the “Loss in CE activity + benzil [%]” value ([1]; liver microsomal extract HH13) was 56.4%. The “CE activity + benzil” value ([1]; liver microsomal extract HH61) was 406 ± 21 nmol/mg/min, the “Loss in CE activity + benzil” value ([1]; liver microsomal extract HH61) was 5472 nmol/mg/min and the “Loss in CE activity + benzil [%]” value ([1]; liver microsomal extract HH61) was 93.1%. For the same compound, the “CE activity + benzil” value ([1]; liver microsomal extract HH74) was 377 ± 7.8 nmol/mg/min, the “Loss in CE activity + benzil” value ([1]; liver microsomal extract HH74) was 3329 nmol/mg/min and the “Loss in CE activity + benzil [%]” value ([1]; liver microsomal extract HH74) was 89.8%. The “CE activity + benzil” value ([1]; liver microsomal extract HK37) was 476 ± 58 nmol/mg/min, the “Loss in CE activity + benzil” value ([1]; liver microsomal extract HK37) was 5856 nmol/mg/min and the “Loss in CE activity + benzil [%]” value ([1]; liver microsomal extract HK37) was 92.5%. The “CE activity + benzil” value ([1]; liver microsomal extract SD003) was 439 ± 42 nmol/mg/min, the “Loss in CE activity + benzil” value ([1]; liver microsomal extract SD003) was 4804 nmol/mg/min and the “Loss in CE activity + benzil [%]” value ([1]; liver microsomal extract SD003) was 91.6%. For the same compound, the “CE activity + benzil” value ([1]; liver microsomal extract SD004) was 552 ± 35 nmol/mg/min, the “Loss in CE activity + benzil” value ([1]; liver microsomal extract SD004) was 5070 nmol/mg/min and the “Loss in CE activity + benzil [%]” value ([1]; liver microsomal extract SD004) was 90.2%. For the same compound, the “CE activity + benzil” value ([1]; liver microsomal extract SD104) was 507 ± 48 nmol/mg/min, the “Loss in CE activity + benzil” value ([1]; liver microsomal extract SD104) was 4881 nmol/mg/min and the “Loss in CE activity + benzil [%]” value ([1]; liver microsomal extract SD104) was 90.6%. For the same compound, the “CE activity + benzil” value ([1]; liver microsomal extract SD120) was 367 ± 27 nmol/mg/min, the “Loss in CE activity + benzil” value ([1]; liver microsomal extract SD120) was 4128 nmol/mg/min and the “Loss in CE activity + benzil [%]” value ([1]; liver microsomal extract SD120) was 91.8%. The “CE activity + benzil” value ([1]; liver microsomal extract SD123) was 544 ± 29 nmol/mg/min, the “Loss in CE activity + benzil” value ([1]; liver microsomal extract SD123) was 5401 nmol/mg/min and the “Loss in CE activity + benzil [%]” value ([1]; liver microsomal extract SD123) was 90.9%. For the same compound, the “CE activity + benzil” value ([1]; liver microsomal extract SD124) was 268 ± 11 nmol/mg/min, the “Loss in CE activity + benzil” value ([1]; liver microsomal extract SD124) was 3140 nmol/mg/min and the “Loss in CE activity + benzil [%]” value ([1]; liver microsomal extract SD124) was 92.1%. The “CE activity + benzil” value ([1]; liver microsomal extract SD128) was 713 ± 2.7 nmol/mg/min, the “Loss in CE activity + benzil” value ([1]; liver microsomal extract SD128) was 5600 nmol/mg/min and the “Loss in CE activity + benzil [%]” value ([1]; liver microsomal extract SD128) was 88.7%. For the same compound, the “CE activity + benzil” value ([1]; liver microsomal extract SD132) was 935 ± 79 nmol/mg/min, the “Loss in CE activity + benzil” value ([1]; liver microsomal extract SD132) was 7259 nmol/mg/min and the “Loss in CE activity + benzil [%]” value ([1]; liver microsomal extract SD132) was 88.6%. The “CE activity + benzil” value ([1]; liver microsomal extract SD134) was 322 ± 43 nmol/mg/min, the “Loss in CE activity + benzil” value ([1]; liver microsomal extract SD134) was 220 nmol/mg/min and the “Loss in CE activity + benzil [%]” value ([1]; liver microsomal extract SD134) was 40.6%. For the same compound, the “CE activity + benzil” value ([1]; liver microsomal extract SD136) was 314 ± 35 nmol/mg/min, the “Loss in CE activity + benzil” value ([1]; liver microsomal extract SD136) was 2882 nmol/mg/min and the “Loss in CE activity + benzil [%]” value ([1]; liver microsomal extract SD136) was 90.1%. For the same compound, the “reduction of CE activity” value [1, 3] was 80–90%, the “CPT-11 hydrolysis + benzil” value ([2]; liver microsomal extract HG03) was 6.62 ± 0.16 pmol/mg/h and the “Loss in CPT-11 hydrolysis + benzil” value ([2]; liver microsomal extract HG03) was 37.6 pmol/mg/h. The “Loss in CPT-11 hydrolysis + benzil [%]” value ([2]; liver microsomal extract HG03) was 85%, the “CPT-11 hydrolysis + benzil” value ([2]; liver microsomal extract HG74) was 6.25 ± 0.13 pmol/mg/h and the “Loss in CPT-11 hydrolysis + benzil” value ([2]; liver microsomal extract HG74) was 33.6 pmol/mg/h. The “Loss in CPT-11 hydrolysis + benzil [%]” value ([2]; liver microsomal extract HG74) was 84.3%, the “CPT-11 hydrolysis + benzil” value ([2]; liver microsomal extract HG93) was 4.58 ± 0.10 pmol/mg/h and the “Loss in CPT-11 hydrolysis + benzil” value ([2]; liver microsomal extract HG93) was 26.0 pmol/mg/h. For the same compound, the “Loss in CPT-11 hydrolysis + benzil [%]” value ([2]; liver microsomal extract HG93) was 85.0%, the “CPT-11 hydrolysis + benzil” value ([2]; liver microsomal extract HG95) was 5.39 ± 0.09 pmol/mg/h and the “Loss in CPT-11 hydrolysis + benzil” value ([2]; liver microsomal extract HG95) was 19.1 pmol/mg/h. The “Loss in CPT-11 hydrolysis + benzil [%]” value ([2]; liver microsomal extract HG95) was 78.0%, the “CPT-11 hydrolysis + benzil” value ([2]; liver microsomal extract HG103) was 4.22 ± 0.10 pmol/mg/h and the “Loss in CPT-11 hydrolysis + benzil” value ([2]; liver microsomal extract HG103) was 28.3 pmol/mg/h. For the same compound, the “Loss in CPT-11 hydrolysis + benzil [%]” value ([2]; liver microsomal extract HG103) was 87.0%, the “CPT-11 hydrolysis + benzil” value ([2]; liver microsomal extract HH13) was 3.94 ± 0.12 pmol/mg/h and the “Loss in CPT-11 hydrolysis + benzil” value ([2]; liver microsomal extract HH13) was 30.0 pmol/mg/h. For the same compound, the “Loss in CPT-11 hydrolysis + benzil [%]” value ([2]; liver microsomal extract HH13) was 88.4%, the “CPT-11 hydrolysis + benzil” value ([2]; liver microsomal extract HH61) was 2.80 ± 0.007 pmol/mg/h and the “Loss in CPT-11 hydrolysis + benzil” value ([2]; liver microsomal extract HH61) was 19.4 pmol/mg/h. For the same compound, the “Loss in CPT-11 hydrolysis + benzil [%]” value ([2]; liver microsomal extract HH61) was 87.4%, the “CPT-11 hydrolysis + benzil” value ([2]; liver microsomal extract HH74) was 2.49 ± 0.04 pmol/mg/h and the “Loss in CPT-11 hydrolysis + benzil” value ([2]; liver microsomal extract HH74) was 12.9 pmol/mg/h. For the same compound, the “Loss in CPT-11 hydrolysis + benzil [%]” value ([2]; liver microsomal extract HH74) was 83.8%, the “CPT-11 hydrolysis + benzil” value ([2]; liver microsomal extract HK37) was 4.31 ± 0.02 pmol/mg/h and the “Loss in CPT-11 hydrolysis + benzil” value ([2]; liver microsomal extract HK37) was 31.0 pmol/mg/h. The “Loss in CPT-11 hydrolysis + benzil [%]” value ([2]; liver microsomal extract HK37) was 87.8%, the “CPT-11 hydrolysis + benzil” value ([2]; liver microsomal extract SD003) was 8.00 ± 0.01 pmol/mg/h and the “Loss in CPT-11 hydrolysis + benzil” value ([2]; liver microsomal extract SD003) was 46.6 pmol/mg/h. For the same compound, the “Loss in CPT-11 hydrolysis + benzil [%]” value ([2]; liver microsomal extract SD003) was 85.4%, the “CPT-11 hydrolysis + benzil” value ([2]; liver microsomal extract SD004) was 4.38 ± 0.07 pmol/mg/h and the “Loss in CPT-11 hydrolysis + benzil” value ([2]; liver microsomal extract SD004) was 29.5 pmol/mg/h. For the same compound, the “Loss in CPT-11 hydrolysis + benzil [%]” value ([2]; liver microsomal extract SD004) was 87.1%, the “CPT-11 hydrolysis + benzil” value ([2]; liver microsomal extract SD104) was 3.89 ± 0.32 pmol/mg/h and the “Loss in CPT-11 hydrolysis + benzil” value ([2]; liver microsomal extract SD104) was 15.6 pmol/mg/h. The “Loss in CPT-11 hydrolysis + benzil [%]” value ([2]; liver microsomal extract SD104) was 80.0%, the “CPT-11 hydrolysis + benzil” value ([2]; liver microsomal extract SD120) was 6.00 ± 0.20 pmol/mg/h and the “Loss in CPT-11 hydrolysis + benzil” value ([2]; liver microsomal extract SD120) was 37.8 pmol/mg/h. For the same compound, the “Loss in CPT-11 hydrolysis + benzil [%]” value ([2]; liver microsomal extract SD120) was 86.4%, the “CPT-11 hydrolysis + benzil” value ([2]; liver microsomal extract SD123) was 4.00 ± 0.09 pmol/mg/h and the “CPT-11 hydrolysis + benzil” value ([2]; liver microsomal extract SD124) was 5.04 ± 0.09 pmol/mg/h. For the same compound, the “Loss in CPT-11 hydrolysis + benzil” value ([2]; liver microsomal extract SD124) was 22.1 pmol/mg/h, the “Loss in CPT-11 hydrolysis + benzil [%]” value ([2]; liver microsomal extract SD124) was 81.4% and the “CPT-11 hydrolysis + benzil” value ([2]; liver microsomal extract SD128) was 4.03 ± 0.01 pmol/mg/h. For the same compound, the “Loss in CPT-11 hydrolysis + benzil” value ([2]; liver microsomal extract SD128) was 25.5 pmol/mg/h, the “Loss in CPT-11 hydrolysis + benzil [%]” value ([2]; liver microsomal extract SD128) was 86.4% and the “CPT-11 hydrolysis + benzil” value ([2]; liver microsomal extract SD132) was 4.30 ± 0.01 pmol/mg/h. For the same compound, the “Loss in CPT-11 hydrolysis + benzil” value ([2]; liver microsomal extract SD132) was 22.3 pmol/mg/h, the “Loss in CPT-11 hydrolysis + benzil [%]” value ([2]; liver microsomal extract SD132) was 83.9% and the “CPT-11 hydrolysis + benzil” value ([2]; liver microsomal extract SD134) was 2.57 ± 0.03 pmol/mg/h. The “Loss in CPT-11 hydrolysis + benzil” value ([2]; liver microsomal extract SD134) was 14.9 pmol/mg/h, the “Loss in CPT-11 hydrolysis + benzil [%]” value ([2]; liver microsomal extract SD134) was 85.3% and the “CPT-11 hydrolysis + benzil” value ([2]; liver microsomal extract SD136) was 7.76 ± 0.18 pmol/mg/h. For the same compound, the “Loss in CPT-11 hydrolysis + benzil” value ([2]; liver microsomal extract SD136) was 47.6 pmol/mg/h, the “Loss in CPT-11 hydrolysis + benzil [%]” value ([2]; liver microsomal extract SD136) was 86.0% and the “reduction of yields of SN-38 produced” value [2, 3] was 80–90%.
